Assay: Dissolution time of a quantity corresponding to 75 mg of Imidapril in 30 ml of water at room temperature
Format: physicochemical
Details: quantity of formulation corresponding to 75 mg of Imidapril added to 30 ml of stirred water at room temperature
Description: This crystalline condition makes it possible to obtain a quick dissolution Imidapril powder, i.e., having a total dissolution time of the powder of 30 sec for a quantity of 75 mg of Imidapril in 30 ml of water at room temperature (25° C.). […] The apparent dissolution time is noted.

## CCOC(=O)[C@H](CCc1ccccc1)N[C@@H](C)C(=O)N1C(=O)N(C)C[C@H]1C(=O)O [Standard Imidapril, Imidapril]
  Time (s) (apparent dissolution time): 420 s

From patent publication US20080167358A1, “Methods for Obtaining a Fast Dissolving Imidapril Powder” (priority 2005, published 2008)
